Molecules are shown by their SMILES.

For series [1], the system named is control MEF cells (fl/fl). Kind of series: In vitro TrxR knockout assay: control MEF (fl/fl) viability. In kind it is cell-based. Particulars: Mus musculus, 48 h, resazurin, read-out: IC50 antiproliferation / cell viability. The method, then:
(§1) Assay Conditions: TrxR1 knockout and reference mouse embryonic fibroblasts (MEF) were a gift by Marcus Conrad (LMU Munich) and initially isolated from conditional TrxR1 knockout mouse embryos, were immortalised by lentiviral transduction. In vitro deletion of TrxR1 was achieved by Tat-Cre induced recombination and verified by PCR and Immunoblotting for TrxR1 as described in Conrad et al. Cancer Res. 2010, 70, 22, 9505. MEF knockout (ko) and control (fl/fl) cells were cultured under standard conditions, left to adhere for 24 h, then P17 or P18 were added from DMSO stock solution and adjusted to 1% vol DMSO. Cells were incubated under standard conditions for 48 h, then 0.20 volume equivalents of a solution of resazurin in PBS (0.15 mg/mL) were added and incubated for 3 h, then fluorescence (ex 544 nm, em 590 nm) was detected on a fluorescence platereader. Cell viability (%) is calculated relative to a control experiment with no P17 or P18 added, from the fluorescence values.
For orientation: The colour change of resazurin is a common sign of viable cells or microbes.

For series [2], the system named is MEF cells with genetic knockout of TrxR (TrxR ko). In words: In vitro TrxR knockout assay: TrxR1 knockout MEF viability. In kind it is cell-based, mouse. Particulars: MEF TrxR ko versus fl/fl, 48 h, resazurin. The method, then: as §1
The next series has as its system A549 cells. In words: Cellular reduction assay P12-P16 (FIG. 6). Type of series: cell-based, human. Conditions: 10 μM or 40 μM, 1% vol DMSO, cells under ordinary conditions. The protocol: Assay Conditions: A549 cells were cultured under standard conditions (Gao, L. et al. Cell Chemical Biology 2021, 28, 1-14. https://doi.org/10.1016/j.chembiol.2020.11.007), left to adhere for 24 h, then compounds were added to 10 μM or 40 μM with 1% vol DMSO. Fluorescence timecourse measurements were acquired as in the chemoreductant assay, with all conditions in triplicates.
Experimental Results and Discussion: F(t) is the raw fluorescence intensity signal increase in arbitrary units with the same detection settings the probes releasing the same cargo. […] This trend is irrespective of the applied concentration in cells and cellular increase is constant over time. This indicates, that P13-P16 are activated more selectively by specific enzymatic cascades (as e.g. Trx/TrxR), whereas P12 may be activated more unspecifically. Thus, compounds of the invention either have the possibility of being useful by giving selective cargo release in pathologically growing cells or cells under abnormal conditions (P13-P16), or offer novel opportunities of cellular delivery of appended cargoes with optimal response kinetics (P12).

Series [3] concerns HeLa cells. Kind of series: In vitro cell viability assay P21, P22 (resazurin). In kind it is cell-based, human. Particulars: 48 h. The method, then:
(§2) Assay Conditions: Cells (A549 cells for P19 and P20; HeLa cells for P21 and P22) were cultured under standard conditions (Gao, L. et al. Cell Chemical Biology 2021, 28, 1-14. https://doi.org/10.1016/j.chembiol.2020.11.007), left to adhere for 24 h, then P19, P20, P21 or P22 were added from DMSO stock solution and adjusted to 1% vol DMSO. Cells were incubated under standard conditions for 48 h, then 0.20 volume equivalents of a solution of resazurin in PBS (0.15 mg/mL) were added and incubated for 3 hours, then fluorescence (ex 544 nm, em 590 nm) was detected on a fluorescence platereader. Cell viability (%) was calculated relative to a control experiment (no compound) from the fluorescence values.

In series [4] the test system is 4T1 Balb/c mouse breast cancer cell line, orthotopic tumor. In words: In vivo mouse tumor model assay P10. The source says: Assay Conditions and Data Representation: Immunocompetent wildtype Balb/c mice were inoculated with 4T1 Balb/c mouse breast cancer cell line orthotopically in the mammary fat pad (2×10^5 cells) and tumor growth was monitored by caliper measurement. The day when all tumors had reached ca. 150 mm^3 was defined as Day 0; on this day the mice were randomised by tumor size into groups of minimum size 5 animals (mean tumor size ca. 200 mm^3), and treated. Treatments were chosen from 0.9% NaCl (“untreated”), the vascular disrupting agent combretastatin A-4 phosphate (CA4P) at 30 mg/kg administered in 100 μL NaCl (“VDA”), compound of the invention P10 at 4 mg/kg administered in 30 μL DMSO (“P10”), or a combination regime involving treatment with VDA and then 6 hours later with P10 (“VDA+P10”). All treatments were administered intraperitoneally (i.p.). CA4P was re-applied to groups “VDA” and […] once at day 7; no P10 treatment was re-applied to either “P10” or “VDA+P10” groups. Tumor volumes were measured as assay readout.

Series [5] has as its system HeLa cells. Kind of series: In vitro cell viability assay P10 (resazurin). Conditions: Homo sapiens, 48 h, read-out: IC50 antiproliferation / cell viability. In kind it is cell-based. The protocol: as §2, with “Cells” for “Cells (A549 cells for P19 and P20; HeLa cells for P21 and P22)”, “then P10 was” for “then P19, P20, P21 or P22 were”, “(%) is” for “(%) was”, “experiment with no P10 added,” for “experiment (no compound)”

Take `COc1cc2cc(C(=O)N3C[C@@H](CCl)c4c3cc(OC(=O)N3CCN(C(=O)CCC(=O)N5CCN(C)CC5)[C@@H]5CSSCC53)c3ccccc43)[nH]c2c(OC)c1OC` (mixture of isomers) [Compound P18, (S)-1-(chloromethyl)-3-(5,6,7-trimethoxy-1H-indole-2-carbonyl)-2,3-dihydro-1H-benzo[e]indol-5-yl (cis)-4-(4-(4-methylpiperazin-1-yl)-4-oxobutanoyl)hexahydro-[1,2]dithiino[4,5-b]pyrazine-1(2H)-carboxylate]: the IC50 in series [1] is ~100 nM. For the same molecule, the “activation / cytotoxicity in TrxR ko cells compared to control cells” value in series [2] is “activated less effectively”.

As to `COc1cc2cc(C(=O)N3C[C@@H](CCl)c4c3cc(OC(=O)N3CCN(C)[C@@H]5CSSCC53)c3ccccc43)[nH]c2c(OC)c1OC` (mixture of isomers) [Compound P17, (S)-1-(chloromethyl)-3-(5,6,7-trimethoxy-1H-indole-2-carbonyl)-2,3-dihydro-1H-benzo[e]indol-5-yl (cis)-4-methylhexahydro-[1,2]dithiino[4,5-b]pyrazine-1(2H)-carboxylate], the IC50 in series [1] is ~100 nM. Further, the “activation / cytotoxicity in TrxR ko cells compared to control cells” value in series [2] was “activated less effectively”.

Regarding `COc1ccc2c(c1)Oc1cc(OC(=O)N3CCN[C@@H]4CSSC[C@H]43)ccc1C21OC(=O)c2ccccc21` (mixture of isomers) [Compound P12, 3′-methoxy-3-oxo-3H-spiro[isobenzofuran-1,9′-xanthen]-6′-yl-trans-hexahydro-[1,2]dithiino[4,5-b]pyrazine-1(2H)-carboxylate], the “cargo release / activation inside cells (raw fluorescence F(t))” value with A549 cells is “substantially releases its cargo inside cells cultured under ordinary conditions”.

Turning to `CC[C@@]1(O)C(=O)OCc2c1cc1n(c2=O)Cc2cc3c(CN(C)C)c(OC(=O)N4CCCC5CSSC[C@@H]54)ccc3nc2-1` (mixture of isomers) [Compound P22, (R)-10-((dimethylamino)methyl)-4-ethyl-4-hydroxy-3,14-dioxo-3,4,12,14-tetrahydro-1H-pyrano[3′,4′:6,7]indolizino[1,2-b]quinolin-9-yl (trans)-hexahydro-[1,2]dithiino[4,5-b]pyridine-1(2H)-carboxylate], in the series on HeLa cells [3], the “tolerability in cells compared with Irinotecan” value was “equally well-tolerated in cells as the approved cancer prodrug Irinotecan” and the “toxicity to cells compared with SN-38” value is “significantly less toxic to cells than the parent compound”.

For `O=C(c1cc2cc(OCCCN3CCC3)ccc2[nH]1)N1C[C@@H](CCl)c2c1cc(OC(=O)N1CCC[C@@H]3CSSC[C@@H]31)c1ccccc21` (racemic) [Compound P10, (S)-3-(5-(3-(azetidin-1-yl)propoxy)-1H-indole-2-carbonyl)-1-(chloromethyl)-2,3-dihydro-1H-benzo[e]indol-5-yl (cis)-hexahydro-[1,2]dithiino[4,5-b]pyridine-1(2H)-carboxylate], in series [4] (CA4P (VDA) 30 mg/kg i.p., then 6 hours later P10 4 mg/kg i.p.), the “tumor growth (tumor volume), combination with VDA” value is “still more significantly slows tumor growth”. In series [4] (single treatment 4 mg/kg i.p., Balb/c mice, 4T1 tumor), the “primary tumor progression (tumor volume)” value is “significantly slows primary tumor progression”. Besides, in the series with HeLa cells [5], the IC50 is ~200 nM.

(Values after patent US20240207414A1, “DISULFIDE-BASED PRODRUG COMPOUND” (Ludwig-Maximilians-Universitat Munchen, priority 2021, published 2024).)
